Results: the supplement of paper PMC10307832

Tests used:
Experiment in all cases: relative viability (nuclei count vs DMSO), 5 days (fraction); higher = more cells survive
Daporinad + AZD7762 = compound: O=C(/C=C/c1cccnc1)NCCCCC1CCN(C(=O)c2ccccc2)CC1 [Daporinad] + NC(=O)Nc1cc(-c2cccc(F)c2)sc1C(=O)N[C@H]1CCCNC1 [AZD7762] (partner 0.2 µM)
Outline: (§1)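 Relative viability divides the nuclei count in treated wells by that in vehicle wells. Lung cancer cell lines were seeded in 1536-well plates, dosed by pin tool the next day, and fixed and stained after 5 days in one step with final 0.05% Triton X-100, 1% formaldehyde and 1 ug/ml Hoechst. Dosing was a single drug or a fixed anchor-drug dose plus five library-drug doses (not always all listed) in √10 steps, and values are medians of duplicate plates imaged at 4×.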

Daporinad + Pictilisib = compound: O=C(/C=C/c1cccnc1)NCCCCC1CCN(C(=O)c2ccccc2)CC1 [Daporinad] + CS(=O)(=O)N1CCN(Cc2cc3nc(-c4cccc5[nH]ncc45)nc(N4CCOCC4)c3s2)CC1 [Pictilisib] (partner 1 µM)
Outline: as §1

R406 + Luminespib = compound: COc1cc(Nc2ncc(F)c(Nc3ccc4c(n3)NC(=O)C(C)(C)O4)n2)cc(OC)c1OC [R406] + CCNC(=O)c1noc(-c2cc(C(C)C)c(O)cc2O)c1-c1ccc(CN2CCOCC2)cc1 [Luminespib] (partner 0.01 µM)
Outline: as §1

R406 + Olaparib = compound: COc1cc(Nc2ncc(F)c(Nc3ccc4c(n3)NC(=O)C(C)(C)O4)n2)cc(OC)c1OC [R406] + O=C(c1cc(Cc2n[nH]c(=O)c3ccccc23)ccc1F)N1CCN(C(=O)C2CC2)CC1 [Olaparib] (partner 8 µM)
Outline: as §1

Row | Cell Line | relative viability (Daporinad + AZD7762; first compound 0.0005 µM) | relative viability (Daporinad + AZD7762; first compound 0.001581 µM) | relative viability (Daporinad + AZD7762; first compound 0.005 µM) | relative viability (Daporinad + AZD7762; first compound 0.01581 µM) | relative viability (Daporinad + Pictilisib; first compound 0.0005 µM) | relative viability (Daporinad + Pictilisib; first compound 0.001581 µM) | relative viability (Daporinad + Pictilisib; first compound 0.005 µM) | relative viability (Daporinad + Pictilisib; first compound 0.01581 µM) | relative viability (R406 + Luminespib; first compound 0.08 µM) | relative viability (R406 + Luminespib; first compound 0.253 µM) | relative viability (R406 + Luminespib; first compound 0.8 µM) | relative viability (R406 + Luminespib; first compound 2.53 µM) | relative viability (R406 + Luminespib; first compound 8 µM) | relative viability (R406 + Olaparib; first compound 0.08 µM) | relative viability (R406 + Olaparib; first compound 0.253 µM) | relative viability (R406 + Olaparib; first compound 0.8 µM) | relative viability (R406 + Olaparib; first compound 2.53 µM) | relative viability (R406 + Olaparib; first compound 8 µM)
1 | NCI-H1975 | 0.61 | 0.752 | 0.729 | 0.747 | 0.267 | 0.333 | 0.315 | 0.304 | 0.25 | 0.227 | 0.187 | 0.143 | 0.116 | 0.706 | 0.862 | 0.783 | 0.311 | 0.204
2 | CAL-12T | 0.553 | 0.528 | 0.609 | 0.333 | 0.305 | – | 0.442 | 0.494 | 0.57 | 0.516 | 0.52 | 0.124 | 0.138 | 0.71 | 0.746 | 0.747 | 0.687 | 0.55
3 | NCI-H2342 | 0.508 | 0.457 | 0.612 | 0.532 | – | – | – | – | 0.757 | 0.811 | 0.819 | 0.581 | 0.76 | 0.395 | 0.415 | 0.447 | 0.355 | 0.439
4 | HCC-44 | 1.02 | 0.967 | 0.994 | 1.03 | 0.643 | 0.658 | 0.706 | 0.657 | 0.975 | 0.911 | 1.2 | 0.458 | 0.274 | 0.95 | 1 | 0.954 | 0.989 | 1.06
5 | EKVX | 0.586 | 0.676 | 0.933 | 0.705 | 0.478 | 0.432 | 0.412 | 0.464 | 0.863 | 0.885 | 1.06 | 0.702 | 0.74 | 0.928 | 0.971 | 0.995 | 0.717 | 0.655
6 | NCI-H1651 | 0.486 | 0.475 | 0.554 | 0.477 | 0.642 | 0.683 | 0.629 | 0.601 | 1.07 | 1.2 | 1.02 | 0.647 | 0.793 | 0.19 | 0.193 | 0.177 | 0.173 | 0.172
7 | NCI-H1648 | 0.649 | 0.577 | 0.674 | 0.653 | – | – | – | – | – | – | – | – | – | 0.758 | 1.06 | 0.906 | 0.886 | 0.884
8 | NCI-H1703 | 0.134 | 0.123 | 0.155 | 0.142 | 0.236 | 0.283 | 0.259 | 0.265 | – | – | – | – | – | 0.298 | 0.474 | 0.355 | 0.277 | 0.124
9 | Calu-6 | – | – | – | – | 0.917 | 0.907 | 0.81 | 0.421 | – | – | – | – | – | 0.556 | 0.571 | 0.576 | – | 0.271
10 | EBC-1 | – | – | – | – | 0.335 | 0.43 | 0.37 | 0.469 | – | – | – | – | – | 0.671 | 0.783 | 0.843 | 0.644 | 0.369
11 | A-427 | 0.83 | 0.765 | 0.759 | 0.529 | 0.559 | 0.79 | 0.684 | 0.716 | 0.929 | 1 | 1.04 | 0.398 | 0.593 | 0.717 | 0.762 | 0.853 | 0.682 | 0.435
12 | NCI-H2347 | 0.785 | 0.814 | 0.726 | 0.547 | 0.636 | 0.788 | 0.711 | 0.685 | 0.521 | 0.16 | 0.553 | 0.307 | 0.272 | 0.556 | 0.583 | 0.604 | 0.531 | 0.47
13 | NCI-H1355 | 0.768 | 0.799 | 0.869 | 0.675 | 0.417 | 0.549 | 0.628 | 0.576 | 0.713 | 0.804 | 0.664 | 0.497 | 0.39 | 0.675 | 0.8 | 0.82 | 0.569 | 0.374
14 | NCI-H1944 | 0.474 | 0.453 | 0.6 | 0.579 | 0.366 | 0.346 | 0.389 | 0.34 | 0.686 | 0.805 | 0.759 | 0.369 | 0.517 | 0.35 | 0.382 | 0.38 | 0.361 | 0.328
15 | RERF-LC-KJ | – | 1.2 | 1.14 | 1.11 | 0.58 | 0.529 | 0.525 | 0.695 | 1.25 | 1.3 | 1.19 | 1.25 | 0.725 | 1.05 | 0.947 | 0.908 | 0.756 | 0.585
16 | NCI-H2228 | – | – | – | – | 0.342 | 0.358 | 0.495 | 0.464 | 0.145 | 0.213 | 0.103 | 0.0925 | 0.0961 | 0.487 | 0.731 | 0.848 | 0.341 | 0.238
17 | HOP-62 | 0.406 | 0.423 | 0.665 | 0.262 | – | 0.846 | 0.702 | 0.668 | 0.858 | 1.01 | 0.901 | 0.95 | 0.947 | 0.252 | 0.415 | 0.575 | 0.517 | 0.495
